Measurements as given in patent publication US20070004010A1, “Engineered Enzymes and Their Use for Synthesis of Thioglycosides” (THE UNIVERSITY OF BRITISH COLUMBIA, priority 2002, published 2007).
Positions count from the first letter of the chain named. In names and notes the source's numbering stands.

Legend:
[1] = molecular target: T1, Cex E127A (Cellulomonas fimi, UniProt P07986, E168A); test: Functional donors and acceptors for Cex E127A; format: biochemical
T1 sequence (P07986 42-484 E168A): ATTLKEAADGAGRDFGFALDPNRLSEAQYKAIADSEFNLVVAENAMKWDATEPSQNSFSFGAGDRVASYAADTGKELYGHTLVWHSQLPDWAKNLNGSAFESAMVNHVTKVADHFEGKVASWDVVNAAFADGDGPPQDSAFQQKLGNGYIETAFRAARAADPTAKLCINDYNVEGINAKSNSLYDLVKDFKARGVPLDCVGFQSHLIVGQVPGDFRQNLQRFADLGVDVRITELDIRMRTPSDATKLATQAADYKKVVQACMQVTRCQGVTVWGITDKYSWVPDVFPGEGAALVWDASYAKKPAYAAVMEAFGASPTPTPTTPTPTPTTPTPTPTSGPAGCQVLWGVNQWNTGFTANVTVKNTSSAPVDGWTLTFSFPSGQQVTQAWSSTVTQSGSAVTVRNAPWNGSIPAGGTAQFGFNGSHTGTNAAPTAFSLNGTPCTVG

[2] = molecular target: T2, Abg E171A (Agrobacterium sp., UniProt P12614, E171A); test: Kinetic analysis of thioglycoligase reaction (DNP release) with Abg E171A; format: biochemical; conditions: acceptor; donor 2,4-DNP β-D-glucopyranoside (125 mM); 30° C., 50 mM NaPi, 145 mM NaCl, pH 7.1; calculated from the highest observed rate of DNP release
Protocol: Kinetic analysis was performed with 2,4-DNP β-D-glucopyranoside (125 mM) as donor and with pNP 4-deoxy-4-thio-β-D-glucopyranoside as acceptor at 30° C. in 50 mM NaPi, 145 mM NaCl, pH 7.1 (FIG. 7). It has been shown previously, that the KM− value of the donor is extremely low (<1 μM), and that no donor substrate inhibition is seen. Enzymatic background hydrolysis of the donor together with acceptor substrate inhibition make it difficult to exactly determine K′M and k′cat, but it can be calculated from the highest observed rate of DNP release, that k′cat is higher than 50 min^−1.

[3] = system: Man2A E429A; test: Competition study for evaluation of relative rates of transfer to S- and O-acceptors (HPLC); format: biochemical, Cellulomonas fimi; conditions: 6 vs pNP-Xyl, 5.5 mM each; donor DNP-Man; pH 6.8, RT; integration of HPLC peaks
Protocol: Arrows indicate the elution of the O-linked disaccharides, 10 is the S-linked disaccharide.
In order to assess the relative rates of transfer to the oxygen and sulfur nucleophiles in the case of Man 2A E429A we established a competition reaction in which equimolar amounts of pNP-Xyl and its 4-thio analogue 6 were incubated together with DNP-Man as donor and Man2A E429A (FIG. 3). When the concentration of donor was limiting (one third of the concentration of acceptors) we saw exclusive formation of the S-linked disaccharide 10 (a). However, upon addition of further donor to a final concentration twice that of the acceptors the O-linked disaccharides (indicated by arrows) were formed (b).
pNP-Xyl (5.5 mM), 6 (5.5 mM), DNP-Man (3.75 mM) and Man2A E429A (˜1 mg ml.) were incubated in phosphate buffer (50 mM, pH 6.8) for 3 h at RT. After removal of an aliquot DNP-Man was added to a final concentration of 22 mM. After 5 h at RT another aliquot was taken. The aliquots were diluted 1:3 with acetonitrile and centrifuged before applying to the HPLC. HPLC analysis was performed using a Waters 600E multisolvent delivery system with acetonitrile (A)/water (B) as mobile phase (linear gradient: 80% A→60% A in 15 min, flow: 1 ml min^−1), a Waters 2486 Dual λ Absorbance Detector (detection at 280 nm), a TOSO HAAS Amide 80 column (4.6×250 mm) and Millenium 3.20 software.

[4] = molecular target: T2, Abg E171A; format: biochemical; conditions: acceptor with Abg E171A in the presence of DNP-Glc as donor
[5] = system: Man2A E429A; test: Control reaction with parent sugars as acceptors, DNP-Man as donor; format: biochemical, Cellulomonas fimi; conditions: acceptor for Man2A E429A in the presence of DNP-Man
[6] = Saturation mutagenesis at the acid/base position (E171) of Abg: thioligase functionality; format: biochemical, Agrobacterium sp.
[7] = Thioglycoligase function of Cex acid/base mutant; format: biochemical, Cellulomonas fimi; conditions: mutation of the catalytic acid/base residue E127

T2 sequence (P12614 whole entry E171A, looked up): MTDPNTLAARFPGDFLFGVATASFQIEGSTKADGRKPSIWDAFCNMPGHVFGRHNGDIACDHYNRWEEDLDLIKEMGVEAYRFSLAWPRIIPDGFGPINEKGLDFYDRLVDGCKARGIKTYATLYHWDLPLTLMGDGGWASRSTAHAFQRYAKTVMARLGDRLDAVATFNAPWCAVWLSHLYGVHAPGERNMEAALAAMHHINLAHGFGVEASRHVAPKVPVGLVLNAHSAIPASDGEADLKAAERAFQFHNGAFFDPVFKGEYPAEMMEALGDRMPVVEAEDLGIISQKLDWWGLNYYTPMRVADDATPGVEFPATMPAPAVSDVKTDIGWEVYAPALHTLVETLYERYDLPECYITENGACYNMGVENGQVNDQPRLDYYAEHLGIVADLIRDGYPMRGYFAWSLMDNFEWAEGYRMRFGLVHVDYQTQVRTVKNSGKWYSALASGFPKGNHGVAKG

In the case of `OC[C@H]1O[C@@H](O[C@H]2[C@H](O)[C@@H](O)C(O)O[C@@H]2CO)[C@H](O)[C@@H](O)[C@@H]1S` (stereo partly drawn) [4′-deoxy-4′-thio-cellobiose], the acceptor function [1] is reported as “Functional acceptors”.

With `O=[N+]([O-])c1ccc(O[C@@H]2O[C@H](CO)[C@@H](O[C@@H]3O[C@H](CO)[C@@H](O)[C@H](O)[C@H]3O)[C@H](O)[C@H]2O)c([N+](=O)[O-])c1` [DNP β-cellobioside] the donor function [1] was “Functional donors”.

In the case of `O=[N+]([O-])c1ccc(O[C@@H]2O[C@H](CO)[C@@H](S)[C@H](O)[C@H]2O)cc1` [compound 3, para-nitrophenyl 4-deoxy-4-thio-β-D-glucopyranoside], the “k′cat” value [2] is reported as “higher than 50 min^−1” and the acceptor function [1] is reported as “Functional acceptors”.

In the case of `O=[N+]([O-])c1ccc(O[C@@H]2OC[C@@H](S)[C@H](O)[C@H]2O)cc1` [compound 6, p-Nitrophenyl 4-deoxy-4-thio-β-D-xylopyranoside], the “transfer to the thiosugar acceptor faster than transfer to its oxygen analogue” value [3] is reported as “at least 100 fold”.

For `O=[N+]([O-])c1ccc(O[C@@H]2O[C@H](CO)[C@@H](O[C@@H]3O[C@H](CO)[C@@H](S)[C@H](O)[C@H]3O)[C@H](O)[C@H]2O)cc1` [pNP 4′-deoxy4′-thio-β-cellobioside, pNP 4′-deoxy-4′-thio-β-cellobioside], the acceptor function [1] was “Functional acceptors” and the donor function [1] was “Functional donors”.

For `O=[N+]([O-])c1ccc(O[C@@H]2O[C@H](CO)[C@@H](O)[C@H](O)[C@H]2O)cc1` [pNP-Glc, para-nitrophenyl β-D-glucopyranoside], the formation of disaccharides [4] was “no formation of disaccharides” and the “formation of disaccharide products” value [5] was “only very slowly”.

For `O=[N+]([O-])c1ccc(O[C@@H]2OC[C@@H](O)[C@H](O)[C@H]2O)cc1` [pNP-Xyl, para-nitrophenyl β-D-xylopyranoside], the formation of disaccharides [4] was “no formation of disaccharides” and the “formation of disaccharide products” value [5] was “only very slowly”.

B1: Abg E171G: acid/base position (E171) mutant of the β-glucosidase from Agrobacterium sp. (Abg) (protein, UniProt P12614 1-459, looked up, variant E171G)
Beta-glucosidase: MTDPNTLAARFPGDFLFGVATASFQIEGSTKADGRKPSIWDAFCNMPGHVFGRHNGDIACDHYNRWEEDLDLIKEMGVEAYRFSLAWPRIIPDGFGPINEKGLDFYDRLVDGCKARGIKTYATLYHWDLPLTLMGDGGWASRSTAHAFQRYAKTVMARLGDRLDAVATFNGPWCAVWLSHLYGVHAPGERNMEAALAAMHHINLAHGFGVEASRHVAPKVPVGLVLNAHSAIPASDGEADLKAAERAFQFHNGAFFDPVFKGEYPAEMMEALGDRMPVVEAEDLGIISQKLDWWGLNYYTPMRVADDATPGVEFPATMPAPAVSDVKTDIGWEVYAPALHTLVETLYERYDLPECYITENGACYNMGVENGQVNDQPRLDYYAEHLGIVADLIRDGYPMRGYFAWSLMDNFEWAEGYRMRFGLVHVDYQTQVRTVKNSGKWYSALASGFPKGNHGVAKG
In the case of B1, the functionality as thioligase [6] is reported as “functionality as thioligases”.

B2: Abg E171Q: acid/base position (E171) mutant of the β-glucosidase from Agrobacterium sp. (Abg) (protein, UniProt P12614 1-459, looked up, variant E171Q)
Beta-glucosidase: B1 Beta-glucosidase with G171Q
With B2 the functionality as thioligase [6] was “functionality as thioligases”.

B3: E171S: acid/base position (E171) mutant of Abg (protein, UniProt P12614 1-459, looked up, variant E171S)
Beta-glucosidase: B1 Beta-glucosidase with G171S
With B3 the functionality as thioligase [6] was “functionality as thioligases”.

B4: E171T: acid/base position (E171) mutant of Abg (protein, UniProt P12614 1-459, looked up, variant E171T)
Beta-glucosidase: B1 Beta-glucosidase with G171T
With B4 the functionality as thioligase [6] was “functionality as thioligases”.

B5: E171M: acid/base position (E171) mutant of Abg (protein, UniProt P12614 1-459, looked up, variant E171M)
Beta-glucosidase: B1 Beta-glucosidase with G171M
With B5 the functionality as thioligase [6] was “functionality as thioligases”.

B6: E171F: acid/base position (E171) mutant of Abg (protein, UniProt P12614 1-459, looked up, variant E171F)
Beta-glucosidase: B1 Beta-glucosidase with G171F
With B6 the functionality as thioligase [6] was “functionality as thioligases”.

B7: E171L: acid/base position (E171) mutant of Abg (protein, UniProt P12614 1-459, looked up, variant E171L)
Beta-glucosidase: B1 Beta-glucosidase with G171L
In the case of B7, the functionality as thioligase [6] is reported as “functionality as thioligases”.

B8: E171I: acid/base position (E171) mutant of Abg (protein, UniProt P12614 1-459, looked up, variant E171I)
Beta-glucosidase: B1 Beta-glucosidase with G171I
In the case of B8, the functionality as thioligase [6] is reported as “functionality as thioligases”.

B9: E171N: acid/base position (E171) mutant of Abg (protein, UniProt P12614 1-459, looked up, variant E171N)
Beta-glucosidase: B1 Beta-glucosidase with G171N
With B9 the functionality as thioligase [6] was “functionality as thioligases”.

B10: Cex E127A: endo acting retaining β-glycosidase from Cellulomonas fimi (Cex) mutated at the catalytic acid/base residue E127 (protein, UniProt P07986 42-484, looked up, variant E127A)
Exoglucanase/xylanase: T1 sequence (P07986 42-484 E168A)
In the case of B10, the thioglycoligase function [7] is reported as “functional thioglycoligase”.
